{"source": "patent US6365628B1", "about": "(Thia Medica AS, priority 1998, dated 2002)", "key": {"[1]": {"tested_on": "male Wistar rats", "assay": "Body weight of male Wistar rats after 12 weeks of treatment (Example 6)", "type": "in vivo, rat", "settings": "oral TTA", "protocol": "2 groups of 6 male Wistar Rats were randomly selected, and studied for weight development over a period of 12 week. The body weight of each Wistar rat was measured at the start of the experiment. All animals in both groups received individually the same amount of food (nutrition) during the experimental period of 12 weeks. All animals in one of the groups were orally administrated with the medicament comprising TTA. The other group was the control group (CMC). After the 12 week period the body weight of rats were measured again."}, "[2]": {"tested_on": "5 weeks old Zucker (fa/fa) rats", "assay": "Intravenous glucose tolerance test (IVGTT) (Example 15)", "type": "in vivo, rat", "protocol": "Male Zucker (fa/fa) rats (5 weeks old) were anaesthetised after a 5-hours fast, by intraperitoneal injection of sodium pentobarbital (50 mg/kg). The rats were injected with glucose (0.55 g/kg) in the saphenous vein and blood samples were collected from the tail vein in heparinized tubes at time 0, 5, 10, 15, 20 and 30 minutes after the glucose load. Samples were kept on ice, centrifuged and plasma was stored at −20° C. until analysis."}, "[3]": {"tested_on": "chinese hamster ovary cells", "assay": "Chromosomal aberrations in cultured chinese hamster ovary cells", "type": "cell-based", "settings": "doses tested 12-140 mg/ml"}, "[4]": {"tested_on": "4 month old obese Zucker (fa/fa) rats", "assay": "Blood insulin and glucose in 4 month old obese Zucker (fa/fa) rats (Example 13)", "type": "in vivo, rat", "settings": "4 month old Zucker (fa/fa) rats, chow with 0.15% TTA, 21 days (FIG. 6)", "protocol": "(§1) Glucose (GLU, Boehringer Mannheim, Germany), free fatty acids (NEFA, C ACS-ACOD kit; Wako Chemicals, Dalton, USA) and b-hydroxybutyrate (310-A kit; Sigma Diagnostics Inc., St. Louis, USA) concentrations were measured using enzymatic methods. Insulin concentrations were determined with radioimmunoassay by (CIS bio International, Gif sur Yvette, France) using rat insulin as standard in the Zucker rats. In the Wistar Charles River rats, plasma glucose concentrations were measured with the aid of Beckman Glucose Analyzer (Fullerton, Calif., USA). Plasma insulin levels were measured using a RIA kit from Linco Research Inc. (St. Charles, Mo., USA). Phospholipids were measured by the enzymatic method of bioMérieux, Marcy-l {grave over ( )}Etoile, France, Triacylglycerol by the Technicon Method no. SA4-0324L90, USA and Cholesterol by the Technicon Method no. SA4-0305L90, USA.\nThe rats were given a standard chow diet, either with (n=5) or without (n=6) 0.15% TTA. Following 21 days of treatment, blood was collected and the levels of insulin and glucose measured. Data are means±S.D."}, "[5]": {"tested_on": "Wistar Charles River rats", "assay": "Euglycemic hyperinsulinemic clamp, high fat diet induced insulin resistance (Example 12)", "type": "in vivo, rat", "settings": "HF diet supplemented with TTA, 21 days, 90 min clamp (FIG. 4)", "protocol": "After 21 days on their respective diets (see above), the rats were anaesthetised by injection of xylazine hydrochloride (Rometar SPOFA, Prague, Czech Republic; 10 mg/ml) and ketamine hydrochloride (Narkamon SPOFA, Prague, Czech republic; 75 mg/ml), and fitted with chronic carotid artery and jugular vein cannulas as described by Koopmans et al. (Koopmans, S. J., et al., Biochim Biophys Acta, 1115, […] 1992.). The cannulated rats were allowed to recover for two days after surgery before the clamping studies which were carried out according to Kraegen et al. (Kraegen, E. W., et al., Am J Physiol, 248, E353-E362 1983.). Thus, on the third day after surgery, unrestrained conscious rats were given a continuous infusion of porcine insulin (Actrapid, Novo Nordisk, Denmark) at a dose of 6.4 mU per kg per min to achieve plasma insulin levels in the upper physiological range. The arterial blood glucose concentration was clamped at the basal fasting level, by variable infusion of a 30% w/v glucose solution (Leciva, Prague, Czech Republic). […]\nRats weighing 330±20 g were divided into 3 groups (n=9) and fed with three different diets: standard rat chow, high fat diet (HF) and HF supplemented with TTA. […] The glucose infusion rate (GIR) was determined from the period of the clamp where glycemia got stabilised, i.e. between 45-90 minutes after clamp commencement. […]"}, "[6]": {"tested_on": "obese Zucker fa/fa rats", "assay": "Lipid lowering effect in obese Zucker fa/fa rats (Example 3)", "type": "in vivo, rat", "settings": "300 mg/day/kg by gavage once daily for 10 days, control palmitic acid", "protocol": "as §1\nMale obese Zucker fa/fa rats, weighing 100 g at the start of the experiment, were housed in pairs in metal wire cages in a room maintained at 12 h light-dark cycles and a constant temperature of 20±3° C. The animals were acclimatised for at least one week under these conditions before the start of the experiment.\nTTA (tetradecylthioacetic acid) prepared in accordance with procedure described previously, and palmitic acid (control), was suspended in 0.5% (w/v) carboxymethyl cellulose (CMC). Six animals were used in both groups. TTA (tetradecylthioacetic acid) and palmitic acid were administered at a dose of 300 mg/day/kg body weight, by gastric intubation (gavage) once daily for 10 days. The rats were fasted for 2 hours before termination of the experiment. Blood and organs were collected. Lipid concentrations in plasma were determined using an autoanalyzer, as described in the method section."}, "[7]": {"tested_on": "Wistar rats", "assay": "Lipid lowering effect in normal Wistar rats (Example 4)", "type": "in vivo, rat", "settings": "gavage once daily for 7 days, dose 150 mg/day/kg body weight", "description": "Male Wistar rats, weighing 180-200 g at the start of the experiment, were housed individually in metal wire cages in a room maintained at 12 h light-dark cycles and a constant temperature of 20±3° C. The animals were acclimatised for one week under these conditions before the start of the experiments.\nTTA, TSA and eicosapentaenoic acid (EPA) were suspended in 0.5% (w/v) carboxymethyl cellulose (CMC). Six animals were used for each treatment, and a 0.5% CMC solution was administrated to the rats as control. After administration of the test compound, the rats were fasted for 12 hours and anaesthetised with haloethan. The EPA and the fatty acid derivatives were administered by gastric intubation (gavage) once daily for 7 days. Blood samples were collected by cardiac puncture, and lipid concentrations in plasma were determined as outlined in the method section."}, "[8]": {"tested_on": "mouse lymphoma cells, L5178Y", "assay": "Mutagenicity test in mouse lymphoma cells L5178Y", "type": "cell-based", "settings": "2.5-50 mg/ml", "text": "Tests for mutagenic activity have been performed by Covance Laboratories Limited, England. […] Furthermore, TTA was not mutagenic when tested in mouse lymphoma cells […] L5178Y."}}}
{"substance": "Tetradecylthioacetic acid [TTA]", "values": [{"measurement": "Body weight gain/grams", "setting": "[1]", "value": "234 ± 20", "unit": "grams"}, {"measurement": "IVGTT glucose curves", "setting": "[2]; TTA treated vs control (FIG. 7B)", "value": "normal and comparable"}, {"measurement": "Plasma insulin response to glucose (IVGTT)", "setting": "[2]; glucose 0.55 g/kg i.v. (FIG. 7A)", "value": "significantly lower"}, {"measurement": "Chromosomal aberrations in cultured chinese hamster ovary cells", "setting": "[3]", "value": "no aberrations were induced"}, {"measurement": "Blood glucose concentration", "setting": "[4]", "value": "reduces"}, {"measurement": "Blood insulin concentration", "setting": "[4]", "value": "reduces"}, {"measurement": "Glucose infusion rate (GIR) in euglycemic hyperinsulinemic clamp", "setting": "[5]", "value": "fully normal"}, {"measurement": "Decreased lipid level in plasma (% of control) Cholesterol", "setting": "[6]", "value": "73 % of control"}, {"measurement": "Decreased lipid level in plasma (% of control) Phospholipids", "setting": "[6]", "value": "71 % of control"}, {"measurement": "Decreased lipid level in plasma (% of control) Triglycerides", "setting": "[6]", "value": "72 % of control"}, {"measurement": "Plasma lipids (% reduction of control) cholesterol", "setting": "[7]", "value": "30 % reduction of control"}, {"measurement": "Plasma lipids (% reduction of control) triglycerides", "setting": "[7]", "value": "45 % reduction of control"}, {"measurement": "Mutagenicity in mouse lymphoma cells L5178Y", "setting": "[8]", "value": "not mutagenic"}]}
